Reference: US20240316038A1, “APOL1 INHIBITORS AND METHODS OF USE” (Maze Therapeutics, Inc., priority 2021, published 2024)

Assays:
[1] = target: T1, APOL1 G2 (Homo sapiens, UniProt O14791, DEL388-389); assay: APOL1 calcium transport inhibition assay (GCaMP6f calcium influx, FLIPR) in HEK T-REx/GCaMP6f/APOL1 G2 K6.3 cells; type: cell-based; details: inhibition of APOL1-mediated calcium influx; geometric mean of at least 2 assay runs, † = single assay run (technical duplicate)
T1 construct: expressed in transfected cells; host or cells: HEK293 T-REx clonal lines: HEK T-REx/GCaMP6f/APOL1 G2 K6.3 in A1, HEK293/T-REx APOL1 G2/clone #2 in A2
T1 sequence (O14791 with tags, fused parts or gaps DEL388-389): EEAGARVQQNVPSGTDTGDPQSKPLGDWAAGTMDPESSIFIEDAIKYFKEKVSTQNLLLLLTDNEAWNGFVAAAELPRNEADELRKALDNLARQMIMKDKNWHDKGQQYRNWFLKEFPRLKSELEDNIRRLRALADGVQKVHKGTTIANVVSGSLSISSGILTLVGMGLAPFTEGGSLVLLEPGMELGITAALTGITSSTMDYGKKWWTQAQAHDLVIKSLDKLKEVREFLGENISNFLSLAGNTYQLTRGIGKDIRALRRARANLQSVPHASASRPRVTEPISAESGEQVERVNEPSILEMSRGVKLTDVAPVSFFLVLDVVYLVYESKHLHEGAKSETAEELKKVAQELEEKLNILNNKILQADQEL
Summary of the method: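 HEK293 cells stably expressing GCaMP6f, APOL1 G2 induced 6 h with doxycycline (20 ng/mL added), then washed into Ca2+-free Tyrode's buffer pH 7.4. Compounds (8-point dose response) preincubated 10 min at room temperature, then Ca2+ injected to 5 mM final and influx read on FLIPR. AC50 reported as geometric mean of runs.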

[2] = target: T1, APOL1 G2; assay: Rescue of HEK293 cell death caused by overexpression of APOL1 (CellTiter-Glo luminescence), HEK293/T-REx APOL1 G2/clone #2; type: cell-based; details: reversal of cell death caused by overexpression of APOL1; geometric mean of at least 2 assay runs, † = single assay run (technical duplicate)
Summary of the method: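 Rescue EC50s come from four-parameter logistic fits, geometric mean of at least 2 runs on separate days, each in duplicate. Readout: CellTiter-Glo luminescence after 17 h at 37 °C of 5,000 HEK293/T-REx APOL1 G2 clone #2 cells/well, with 6 ng/mL doxycycline to induce APOL1 and 3-fold serial compound dilutions in 0.5% DMSO.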

Row | SMILES | AC50 [1] [nM] | EC50 [2] [nM]
1 | CN(c1ccc(OC[C@@H](O)CN2CCOC(c3cccc(Cl)c3)C2)cc1)S(C)(=O)=O (single isomer, unassigned) [Compound 81, N-(4-((S)-3-((S) or (R)-2-(3-chlorophenyl)morpho-lino)-2-hydroxypropoxy)phe-nyl)-N-methylmethanesulfon-amide] | > 25000 | > 30000
2 | CN(c1ccc(OC[C@@H](O)CN2CCOC(c3cccc(Cl)c3)C2)cc1)S(C)(=O)=O (single isomer, unassigned) [Compound 82, N-(4-((S)-3-((R) or (S)-2-(3-chlorophenyl)morpho-lino)-2-hydroxypropoxy)phe-nyl)-N-methylmethanesulfon-amide] | 4350 | > 24300
3 | CN(c1ccc(OC[C@H](O)CN2CCOC(c3cccc(Cl)c3)C2)cc1)S(C)(=O)=O (single isomer, unassigned) [Compound 84, N-(4-((R)-3-((R) or (S)-2-(3-chlorophenyl)morpho-lino)-2-hydroxypropoxy)phe-nyl)-N-methylmethanesulfon-amide] | > 25000 | > 30000
4 | CN(c1ccc(OC[C@H](O)CN2CCOC(c3cccc(Cl)c3)C2)cc1)S(C)(=O)=O (single isomer, unassigned) [Compound 85, N-(4-((R)-3-((S) or (R)-2-(3-chlorophenyl)morpho-lino)-2-hydroxypropoxy)phe-nyl)-N-methylmethanesulfon-amide] | 8480 | > 18000
5 | CC(Cc1cccc(Cl)c1)NC[C@@H](O)COc1ccc(N(C)S(C)(=O)=O)cc1 (single isomer, unassigned) [Compound 88, N-(4-((R)-3-(((S) or (R)-1-(3-chlorophenyl)propan-2-yl)amino)-2-hydroxypropoxy)phe-nyl)-N-methylmethanesulfon-amide] | 338 | 698
6 | CC(Cc1cccc(Cl)c1)NC[C@@H](O)COc1ccc(N(C)S(C)(=O)=O)cc1 (single isomer, unassigned) [Compound 89, N-(4-((R)-3-(((R) or (S)-1-(3-chlorophenyl)propan-2-yl)amino)-2-hydroxypropoxy)phe-nyl)-N-methylmethanesulfon-amide] | 449 | 2020
7 | CC(Cc1cccc(Cl)c1)NC[C@H](O)COc1ccc(N(C)S(C)(=O)=O)cc1 (single isomer, unassigned) [Compound 95, N-(4-((S)-3-(((S) or (R)-1-(3-chlorophenyl)propan-2-yl)amino)-2-hydroxypropoxy)phe-nyl)-N-methylmethanesulfon-amide] | 1540 | 6900
8 | CC(Cc1cccc(Cl)c1)NC[C@H](O)COc1ccc(N(C)S(C)(=O)=O)cc1 (single isomer, unassigned) [Compound 96, N-(4-((S)-3-(((R) or (S)-1-(3-chlorophenyl)propan-2-yl)amino)-2-hydroxypropoxy)phe-nyl)-N-methylmethanesulfon-amide] | 3770 | > 30000
9 | CN(c1ccc(OCC(C)(O)CNCCc2cccc(Cl)c2)cc1)S(C)(=O)=O (single isomer, unassigned) [Compound 103, (R) or (S)-N-(4-(3-((3-chlorophenethyl)a-mino)-2-hydroxy-2-methylpropxy)phe-nyl)-N-methylmethanesulfon-amide] | 10900 | > 30000
10 | CN(c1ccc(OCC(C)(O)CNCCc2cccc(Cl)c2)cc1)S(C)(=O)=O (single isomer, unassigned) [Compound 104, (S) or (R)-N-(4-(3-((3-chlorophenethyl)a-mino)-2-hydroxy-2-methylpropoxy)phe-nyl)-N-methylmethanesulfon-amide] | < 382 | 1860
11 | CN(c1ccc(NCC(O)CNCCc2cccc(Cl)c2)cc1)S(C)(=O)=O (single isomer, unassigned) [Compound 106, (R) or (S)-N-(4-((3-((3-chlorophenethyl)a-mino)-2-hydroxypropyl)ami-no)phenyl)-N-methylmethanesulfon-amide] | 2790 | 6240
12 | COCCS(=O)(=O)c1ccc(OC[C@H]2CN(CCc3cccc(Cl)c3)C[C@@H]2C)cc1 (single isomer, unassigned) [Compound 110, (3R,4R or 3S,4S)-1-[2-(3-chlorophenyl)ethyl]-3-{[4-(2-methoxyethane-sulfonyl)phenoxy]methyl}-4-methylpyrrolidine] | 91.4 | 135
13 | COCCS(=O)(=O)c1ccc(OC[C@@H]2CN(CCc3cccc(Cl)c3)C[C@H]2C)cc1 (single isomer, unassigned) [Compound 111, (3S,4S or 3R,4R)-1-[2-(3-chlorophenyl)ethyl]-3-{[4-(2-methoxyethane-sulfonyl)phenoxy]methyl}-4-methylpyrrolidine] | 494 | 1880
14 | C[C@H]1CN(CCc2cccc(Cl)c2)C[C@@H]1COc1ccc(S(=O)(=O)CCO)cc1 (single isomer, unassigned) [Compound 112, 2-(4-{[(3R,4R or 3S,4S)-1-[2-(3-chlorophenyl)ethyl]-4-methylpyrrolidin-3-yl]methoxy}benzene-sulfonyl)ethan-1-ol] | > 159 | 29.8
15 | C[C@@H]1CN(CCc2cccc(Cl)c2)C[C@H]1COc1ccc(S(=O)(=O)CCO)cc1 (single isomer, unassigned) [Compound 113, 2-(4-{[(35,4S or 3R,4R)-1-[2-(3-chlorophenyl)ethyl]-4-methylpyrrolidin-3-yl]methoxy}benzene-sulfonyl)ethan-1-ol] | 907 | 1070
16 | C[C@@H]1C[C@H](COc2ccc(S(C)(=O)=O)cc2)CN1CC(O)c1cc(Cl)cc(C#N)c1 (single isomer, unassigned) [Compound 114, 3-chloro-5-[(1S or 1R)-1-hydroxy-2-[(2R,4S)-4-[(4-methanesulfonylphenoxy)methyl]-2-methylpyrrolidin-1-yl]ethyl] benzonitrile] | 709 | 439
17 | C[C@@H]1C[C@H](COc2ccc(S(C)(=O)=O)cc2)CN1CC(O)c1cc(Cl)cc(C#N)c1 (single isomer, unassigned) [Compound 115, 3-chloro-5-[(1R or 1S)-1-hydroxy-2-[(2R,4S)-4-[(4-methanesulfonylphenoxy)methyl]-2-methylpyrrolidin-1-yl]ethyl] benzonitrile] | 756 | 44.7
18 | C[C@@H]1C[C@H](COc2ccc(S(C)(=O)=O)cc2)CN1CC(O)c1cccc(C#N)c1 (single isomer, unassigned) [Compound 116, 3-[(1R or 1S)-1-hydroxy-2-[(2R,4S)-4-[(4-methanesulfonylphenoxy)methyl]-2-methylpyrrolidin-1-yl]ethyl] benzonitrile] | 374 | 76
19 | C[C@@H]1C[C@H](COc2ccc(S(C)(=O)=O)cc2)CN1CC(O)c1cccc(C#N)c1 (single isomer, unassigned) [Compound 117, 3-[(1S or 1R)-1-hydroxy-2-[(2R,4S)-4-[(4-methanesulfonylphenoxy)methyl]-2-methylpyrrolidin-1-yl]ethyl] benzonitrile] | 1080 | 1240
20 | C[C@@H]1C[C@H](COc2ccc(S(C)(=O)=O)cc2)CN1CC(O)c1cc(C#N)cc(C#N)c1 (single isomer, unassigned) [Compound 118, 5-[(1R or 1S)-1-hydroxy-2-[(2R,4S)-4-[(4-methanesulfonylphenoxy)methyl]-2-methylpyrrolidin-1-ylethyl]benzene-1,3-dicarbonitrile] | 936 | 4040
